The text below walks through data of ChEMBL document CHEMBL3045529, “A rational design, synthesis, characterization, and antihypertensive activities of some new substituted benzimidazoles” (2013).

In this assay the test system is Cavia porcellus. As to the kind of experiment: Antihypertensive activity in Cavia porcellus (guinea pig) assessed as decrease in systolic blood pressure at 3 mg/kg, iv relative to control. The class given is functional, Artery.
Consider `C/C=N/c1ccc2c(c1)nc(CCCC)n2Cc1ccc(-c2ccccc2-c2nnn[nH]2)cc1`, for which the Activity worked out at 27 mmHg. The figure for `CCCCc1nc2cc(NC(C)=O)ccc2n1Cc1ccc(-c2ccccc2-c2nnn[nH]2)cc1` is 22 mmHg.

For `CCCC/C=N/c1ccc2c(c1)nc(CCCC)n2Cc1ccc(-c2ccccc2-c2nnn[nH]2)cc1`, the Activity stood at 27 mmHg. As for `CCCCc1nc2cc([N+](=O)[O-])ccc2n1Cc1ccc(-c2ccccc2-c2nnn[nH]2)cc1`, the Activity worked out at 15 mmHg. On to `CCCCc1nc2cc(N(CC)CC)ccc2n1Cc1ccc(-c2ccccc2-c2nnn[nH]2)cc1`, for which the Activity was determined as 33 mmHg.

Take `CCCCc1nc2cc(NC)ccc2n1Cc1ccc(-c2ccccc2-c2nnn[nH]2)cc1`: the Activity was 12 mmHg.

Turning to `CCCCNc1ccc2c(c1)nc(CCCC)n2Cc1ccc(-c2ccccc2-c2nnn[nH]2)cc1`, the Activity is listed as 31 mmHg.

For the molecule `CCC/C=N/c1ccc2c(c1)nc(CCCC)n2Cc1ccc(-c2ccccc2-c2nnn[nH]2)cc1`, the Activity was found to be 17 mmHg. With `CCCCc1nc2cc(NCC)ccc2n1Cc1ccc(-c2ccccc2-c2nnn[nH]2)cc1`, the Activity is reported as 29 mmHg. Under `CCCCc1nc2cc(NCCC)ccc2n1Cc1ccc(-c2ccccc2-c2nnn[nH]2)cc1` stands 32 mmHg; under `CCCCc1nc(Cl)c(CO)n1Cc1ccc(-c2ccccc2-c2nnn[nH]2)cc1` [LOSARTAN], 34 mmHg.

With `CCCCC/C=N/c1ccc2c(c1)nc(CCCC)n2Cc1ccc(-c2ccccc2-c2nnn[nH]2)cc1`, the Activity was 25 mmHg. Regarding `CCCCc1nc2cc(NCc3ccccc3)ccc2n1Cc1ccc(-c2ccccc2-c2nnn[nH]2)cc1`, the Activity was found to be 31 mmHg. Consider `CC/C=N/c1ccc2c(c1)nc(CCCC)n2Cc1ccc(-c2ccccc2-c2nnn[nH]2)cc1`, for which the Activity worked out at 18 mmHg. Under `CCCCc1nc2cc(N)ccc2n1Cc1ccc(-c2ccccc2-c2nnn[nH]2)cc1` stands 19 mmHg. Regarding `CCCCc1nc2cc(NC(=O)c3ccccc3)ccc2n1Cc1ccc(-c2ccccc2-c2nnn[nH]2)cc1`, the Activity is recorded as 28 mmHg.

In the case of `CCCCc1nc2cc(N(C)C)ccc2n1Cc1ccc(-c2ccccc2-c2nnn[nH]2)cc1`, the Activity is listed as 29 mmHg.
